According to patent US12195427B2, “MASP-2 inhibitors and methods of use” (priority 2018, dated 2025):

Biological target: MASP-2 CCP2-SP (Homo sapiens (Human), UniProt O00187)
Experiment: MASP-2 co-crystallization, X-ray crystallography and structure analysis (H-bonds, van der Waals contacts);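 as to Ligand-pharmacophore element distance, pharmacophore element C2: distance from averaged pharmacophore element to bound ligand; missing value means element absent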;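 as to Ligand-pharmacophore element distance, pharmacophore element C3: distance from averaged pharmacophore element to bound ligand; missing value means element absent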;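 as to Ligand-pharmacophore element distance, pharmacophore element C4: distance from averaged pharmacophore element to bound ligand; missing value means element absent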;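 as to Ligand-pharmacophore element distance, pharmacophore element C5: distance from averaged pharmacophore element to bound ligand; missing value means element absent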
Set-up: van der Waals contact distance, MASP-2 HIS 483 atom CD2 / van der Waals contact distance, MASP-2 HIS 483 atom NE2 / van der Waals contact distance, SER 654 C to compound atom / van der Waals contact distance, SER 654 O to compound atom / van der Waals contact distance, TRP 655 C to compound atom / van der Waals contact distance, MASP-2 GLY 528 atom CA / van der Waals contact distance TRP 655 atom CZ3 / van der Waals contact distance TRP 655 atom N / van der Waals contact distance TRP 655 atom CE3 / van der Waals contact distance GLY 656 atom C / van der Waals contact distance GLY 656 atom CA / van der Waals contact distance GLY 656 atom O / van der Waals contact distance, MASP-2 TYR 607 atom CD1 / van der Waals contact distance, MASP-2 PRO 606 atom O / d(C3,CA1) / d(CA1,N1)2 / d(H4,O1) / d(H4,O2) / d(O1,O2) / d(CA1,O2) / d(CA6,O1) / d(CA6,O2) / d(CA1,C5) / d(O2,H3) / d(N2,C2) / d(CA5,N2) / d(N2,C4) / d(N2,C6) / d(N2,CA3) / d(N2,O3) / d(O4,H2): unit not given beside the values
Conditions: for H-bond distance to MASP-2 GLY 656 atom N: GLY 656 N; for H-bond distance to MASP-2 SER 628 atom O: SER 628 O; for H-bond distance to MASP-2 SER 654 atom O: SER 654 O; for H-bond distance to MASP-2 SER 657 atom O: SER 657 O; for van der Waals contact distance GLY 656 atom C: MASP-2 GLY 656 C; for Ligand-pharmacophore element distance, pharmacophore element C2 / Ligand-pharmacophore element distance, pharmacophore element C3 / Ligand-pharmacophore element distance, pharmacophore element C4 / Ligand-pharmacophore element distance, pharmacophore element C5 / Ligand-pharmacophore element distance, pharmacophore element C6 / Ligand-pharmacophore element distance, pharmacophore element C7 / Ligand-pharmacophore element distance, pharmacophore element CA1 / Ligand-pharmacophore element distance, pharmacophore element CA2 / Ligand-pharmacophore element distance, pharmacophore element CA3 / Ligand-pharmacophore element distance, pharmacophore element CA4 / Ligand-pharmacophore element distance, pharmacophore element CA5 / Ligand-pharmacophore element distance, pharmacophore element CA6: Table A4-1; for d(N2,C2) / d(N2,CA2) / d(O2,H3) / d(O2,N2): Table A5-2 pharmacophore distance, S3/S4 region; for a(O1, O2, H3) / a(O1, O2, N2) / a(O2, N2, C2) / a(O2, N2, CA2): Table A6-2 pharmacophore angle
In short: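 Human MASP-2 CCP2-SP, untagged or 6His-tagged, was expressed in E. coli and crystallized. Crystals were soaked with inhibitor in crystallization solution, flash-cooled in liquid nitrogen, and diffracted with synchrotron X-rays (wavelength 1.0). Structures were solved by molecular replacement from 1Q3X and partially refined.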

[1] = Table A5-1 pharmacophore: distance between elements, S2/S1 region
[2] = Table A7-1, between pharmacophore elements of the bound compound
[3] = Table A8-6, nearest protein atom in cell to the left
[4] = Table A7-2, between pharmacophore elements of the bound compound

Chain of MASP-2 CCP2-SP (O00187 445-686): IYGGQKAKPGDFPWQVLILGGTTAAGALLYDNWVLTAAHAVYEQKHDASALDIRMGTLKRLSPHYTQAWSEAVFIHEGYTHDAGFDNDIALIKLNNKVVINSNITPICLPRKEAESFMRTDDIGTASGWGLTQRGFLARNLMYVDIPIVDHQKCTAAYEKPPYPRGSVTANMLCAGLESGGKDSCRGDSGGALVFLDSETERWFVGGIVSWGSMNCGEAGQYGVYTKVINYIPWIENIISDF
Chain of MASP-2 CCP2-SP (O00187 364-432 partner): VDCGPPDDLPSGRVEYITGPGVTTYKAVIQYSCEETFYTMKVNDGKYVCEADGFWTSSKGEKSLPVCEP

Compound: C[C@H](NC(=O)C1C[C@@H](c2ccccc2)CCN1)C(=O)NCc1ccc(C(=N)N)cc1 (stereo in doubt) [compound 1063]
- H-bond distance to MASP-2 GLY 656 atom N (Table A1 (H-Bonds)): 3.25
- H-bond distance to MASP-2 SER 628 atom O (Table A1 (H-Bonds)): 2.93
- H-bond distance to MASP-2 SER 654 atom O (Table A1 (H-Bonds)): 2.94
- H-bond distance to MASP-2 SER 657 atom O (Table A1 (H-Bonds)): 2.83
- van der Waals contact distance, MASP-2 PHE 529 atom CD1 (Table A2-3): 3.71
- van der Waals contact distance, MASP-2 amino acid atom to compound atom (Table A2-5: TYR 607 (CE1, CE2, OH), PRO 608 (CD, CG), SER 611 (CA)): 3.85
- van der Waals contact distance GLY 656 atom C (Table A2-13): 3.36
- van der Waals contact distance TRP 655 atom O (Table A2-13, MASP-2 TRP 655 O): 3.84
- van der Waals contact distance SER 657 atom C (Table A2-14, MASP-2 SER 657 C, columns c12-c13 (inferred)): 3.75
- Ligand-pharmacophore element distance, pharmacophore element C2: 0.48
- Ligand-pharmacophore element distance, pharmacophore element C3: 0
- Ligand-pharmacophore element distance, pharmacophore element C4: 0
- Ligand-pharmacophore element distance, pharmacophore element C5: 0
- Ligand-pharmacophore element distance, pharmacophore element C6: 0
- Ligand-pharmacophore element distance, pharmacophore element C7: 0
- Ligand-pharmacophore element distance, pharmacophore element CA1: 0.3
- Ligand-pharmacophore element distance, pharmacophore element CA2: 0.85
- Ligand-pharmacophore element distance, pharmacophore element CA3: 0
- Ligand-pharmacophore element distance, pharmacophore element CA4: 0
- Ligand-pharmacophore element distance, pharmacophore element CA5: 0
- Ligand-pharmacophore element distance, pharmacophore element CA6: 0
- d(CA1,N1) [1]: 3.56
- d(CA1,O1) [1]: 4.95
- d(CA1,O2) [1]: 3.58
- d(H4,O1) [1]: 5.37
- d(H4,O2) [1]: 3.82
- d(O1,O2) [1]: 3.31
- d(N2,C2): 1.38
- d(N2,CA2): 5.62
- d(O2,H3): 4.92
- d(O2,N2): 3.36
- a(CA1, O1, O2) (Table A6-1 pharmacophore angle): 88.32
- a(O1, O2, H4) (Table A6-1 pharmacophore angle): 142.43
- A(N1, CA1, O1) a) (Table A6-1 pharmacophore angle, all compounds with protonatable center N1 except Methyl-amino-pyridine): 167.99
- a(O1, O2, H3): 157.64
- a(O1, O2, N2): 139.49
- a(O2, N2, C2): 118.75
- a(O2, N2, CA2): 154.05
- Pharmacophore torsion angle a(H4, O1, O2, H3) [2]: 54.13
- Pharmacophore torsion angle a(H4, O1, O2, N2) [2]: 155.02
- Pharmacophore torsion angle a(N1, CA1, O2, H4) [2]: −130.71
- Pharmacophore torsion angle a(O1, H4, O2, CA1) [2]: −74.94
- Pharmacophore torsion angle a(O1, O2, N2, C2) [2]: 150.29
- Pharmacophore protein distance to MET_658 (first MET_658 column) (Table A8-6, 6th residue column, nearest protein atom in cell to the left): 1.74
- Pharmacophore protein distance to MET_658 (second MET_658 column) (Table A8-6, 9th residue column, nearest protein atom in cell to the left): 2.75
- Pharmacophore protein distance to GLY_528 [3]: 3.37
- Pharmacophore protein distance to PHE_529 [3]: 3.00
- Pharmacophore protein distance to PRO_608 [3]: 4.92
- Pharmacophore protein distance to SER_611 [3]: 3.00
- Pharmacophore protein distance to TRP_655 (Table A8-6, pharmacophore elements C6, CA3, O3, H1, nearest protein atom in cell to the left): 3.73

Compound: Cc1nc(N)ccc1CNC(=O)C(C)NC(=O)C1CC(c2cccc3ccccc23)CCN1.Cl.Cl (stereo not shown) [1297_6]
- Ligand-pharmacophore element distance, pharmacophore element C2: 0.33
- Ligand-pharmacophore element distance, pharmacophore element C3: 0.4
- Ligand-pharmacophore element distance, pharmacophore element C4: 0
- Ligand-pharmacophore element distance, pharmacophore element C5: 0
- Ligand-pharmacophore element distance, pharmacophore element C6: 0
- Ligand-pharmacophore element distance, pharmacophore element C7: 0
- Ligand-pharmacophore element distance, pharmacophore element CA1: 0.36
- Ligand-pharmacophore element distance, pharmacophore element CA2: 0.24
- Ligand-pharmacophore element distance, pharmacophore element CA3: 0
- Ligand-pharmacophore element distance, pharmacophore element CA4: 1.14
- Ligand-pharmacophore element distance, pharmacophore element CA5: 0
- Ligand-pharmacophore element distance, pharmacophore element CA6: 0
- d(C3,CA1) [1]: 2.86
- d(CA1,N1)2 [1]: 1.38
- d(CA1,O1) [1]: 4.73
- d(CA1,O2) [1]: 4.23
- d(H4,O1) [1]: 4.65
- d(H4,O2) [1]: 4.26
- d(O1,O2) [1]: 3.53
- d(N2,C2): 1.44
- d(N2,CA2): 5.72
- d(O2,H3): 4.15
- d(O2,N2): 2.83
- a(C3, CA1, O1) (Table A6-1 pharmacophore angle): 150.35
- a(CA1, O1, O2) (Table A6-1 pharmacophore angle): 105.49
- a(O1, O2, H4) (Table A6-1 pharmacophore angle): 133.61
- a(N1, CA1, O1) b) (Table A6-1 pharmacophore angle, Methyl-amino-pyridine compounds): 173.49
- a(O1, O2, H3): 144.79
- a(O1, O2, N2): 141.32
- a(O2, N2, C2): 116.76
- a(O2, N2, CA2): 154.05
- Pharmacophore torsion angle a(C3, CA1, O1, H4) [2]: 27.46
- Pharmacophore torsion angle a(H4, O1, O2, H3) [2]: 43.22
- Pharmacophore torsion angle a(H4, O1, O2, N2) [2]: 150.19
- Pharmacophore torsion angle a(N1, CA1, O1, H4) [2]: 5.20
- Pharmacophore torsion angle a(O1, H4, O2, CA1) [2]: −89.84
- Pharmacophore torsion angle a(O1, O2, N2, C2) [2]: 132.97
- Pharmacophore torsion angle a(O1, O2, N2, CA2) [4]: 131.04
- Pharmacophore torsion angle a(O1, O2, N2, CA4) [4]: 109.63

Compound: CC(=O)Nc1ccc(CCN[C@H](CCc2ccccc2)C(=O)N[C@@H](C)C(=O)NCc2ccc(C(=N)N)cc2)cc1 [compound 1345, (R)-2-((4-acetamidophenethyl)amino)-N—((S)-1-((4-carbamimidoylbenzyl)amino)-1-oxopropan-2-yl)-4-phenylbutanamide]
- H-bond distance to MASP-2 ARG 630 atom NH1 (second bond) (Table A1 (H-Bonds), ARG 630 NH1): 2.37
- H-bond distance to MASP-2 GLN 665 atom OE1 (Table A1 (H-Bonds), GLN 665 OE1): 2.63
- H-bond distance to MASP-2 GLY 656 atom N (Table A1 (H-Bonds)): 3.05
- H-bond distance to MASP-2 GLY 656 atom O (Table A1 (H-Bonds), GLY 656 O): 3.13
- H-bond distance to MASP-2 SER 628 atom O (Table A1 (H-Bonds)): 2.64
- H-bond distance to MASP-2 SER 654 atom O (Table A1 (H-Bonds)): 3.02
- H-bond distance to MASP-2 SER 657 atom O (Table A1 (H-Bonds)): 3.01
- van der Waals contact distance, MASP-2 HIS 483 atom CD2 (Table A2-1): 3.69
- van der Waals contact distance, MASP-2 HIS 483 atom NE2 (Table A2-1): 3.37
- van der Waals contact distance, MASP-2 PHE 529 atom CZ (Table A2-3): 3.88
- van der Waals contact distance, MASP-2 amino acid atom to compound atom (Table A2-9, ARG 630, AA atoms CG, CZ): 3.52
- van der Waals contact distance, SER 654 C to compound atom (Table A2-11): 3.84
- van der Waals contact distance, SER 654 O to compound atom (Table A2-12): 3.75
- van der Waals contact distance GLY 656 atom C (Table A2-13): 3.74
